From patent US10285967B2, “Monoacylglycerols for use in conjunction with a lipase inhibitor and/or diets low in fat and/or calories” (NESTEC S.A., priority 2013, dated 2019)

What was measured:
[1] = lipid maldigestion or malabsorption rat model (XENICAL-induced), EPA level in red blood cell lipids; format: in vivo; conditions: FIG. 2; for level of EPA incorporated in red blood cells: rats, day 7, with XENICAL (ORLISTAT)
Experimental: The concept was tested in a lipid maldigestion or malabsorption rat model. The maldigestion or malabsorption condition was obtained using XENICAL® (ORLISTAT), a pancreatic and gastric lipases inhibitor (tetrahydrolipstatin; see FIG. 7). Rats were fed during 21 days with long-chain polyunsaturated fatty acid (LC-PUFA) supplements containing mainly eicosapentaenoic (EPA) acid. Fish oil was used as a source of triacylglycerols, and different EPA glycerides were evaluated. XENICAL® (ORLISTAT) was given at a level sufficient to decrease lipid absorption by 40%. A group receiving fish oil without XENICAL® (ORLISTAT) was used as a positive control. At different time intervals (D3, D7, D14 and D21), the fatty acid profiles of red blood cell and plasma lipids were determined. At the end of the experiment, the fatty acid profiles of different tissues were determined.
The main objective was to follow the level of EPA in red blood cell and plasma lipids. The main comparison evaluated was the difference in EPA level between the group receiving EPA-containing sn-1(3) MAG (FIG. 1) in combination with XENICAL® (ORLISTAT) and the […] (fish oil+XENICAL® (ORLISTAT)).
This comparison corroborates the validity of the model.

[2] = clinical study of EPA delivery under lipid maldigestion induced by XENICAL (ORLISTAT); format: in vivo, human
Experimental: This clinical study compared the efficacy of sn-1(3) MAG and fish oil (TAG) in delivering EPA in humans under lipid maldigestion conditions induced by XENICAL® (ORLISTAT). The comparison was tested in volunteers having a BMI of 37-40 kg/m2 and treated with XENICAL® (ORLISTAT) to induce lipid maldigestion or not treated with XENICAL® (ORLISTAT). The primary objective was to assess accretion of EPA in erythrocytes over 21 days when consumed as fish oil (TAG) or sn-1(3) MAG. The secondary objectives were to assess accretion of EPA in plasma over 21 days and also to assess the pharmacokinetics of EPA after an acute dose either in the form of sn-1(3) MAG or TAG (AUC in chylomicrons over 10 hours postprandial).

CCCCCCCCCCC[C@@H](C[C@@H]1OC(=O)[C@H]1CCCCCC)OC(=O)[C@H](CC(C)C)NC=O [XENICAL® (ORLISTAT), tetrahydrolipstatin, reference compound]
EPA incorporation in red blood cells ([1]; rats fed fish oil with XENICAL (ORLISTAT) vs fish oil without, day 7): decreases EPA incorporation in red blood cells

CC/C=C\C/C=C\C/C=C\C/C=C\C/C=C\CCCC(=O)OCC(O)CO (stereo not drawn) [sn-1(3) MAG, sn-1(3)-monoeicosapentaenoylglycerol]
level of EPA incorporated in red blood cells ([1]; compared with fish oil + XENICAL group, all P values lower than 0.05): statistically higher
level of EPA incorporated in red blood cells ([1]; compared with fish oil group without XENICAL): even higher than the fish oil group
carrier for EPA compared with fish oil (TAG) ([2]; obese subjects treated with XENICAL (ORLISTAT)): better carrier for EPA than fish oil
chronic effect: accretion of EPA in erythrocytes after 21 days ([2]; obese volunteers, with XENICAL (ORLISTAT), compared with fish oil + XENICAL, p=0.0001, FIG. 5): statistically significant
chronic effect: accretion of EPA in plasma after 21 days ([2]; obese volunteers, with XENICAL (ORLISTAT), relative to fish oil + XENICAL, p=0.0003, FIG. 6): statistically significant
